Experimental data as given in patent US9719127B2, “Dual inducible vectors and cell lines” (priority 2012, dated 2017).

What was measured:
X4-tropic viruses = assay: GGR cell G.Luc signal with X4-tropic viruses; assay type: cell-based, HIV; conditions: GGR cells, low endogenous CXCR4
[1] = system: CCR5-using HIV-1 isolate (live, replication-competent JR-CSF)

## Maraviroc
X4-tropic viruses
  G.Luc signal with X4-tropic viruses under maraviroc: resistant to maraviroc inhibition
[1]
  Gaussia luciferase signal of CCR5-mediated infection in the presence of maraviroc: reproducibly reduced
